Source: US20220107246A1, “NONCOVALENT TAGS AND RELATED METHODS FOR CYTOSOLIC DELIVERY OF MACROBIOMOLECULES” (University of Washington, priority 2019, published 2022)

Experiments:
Assay type in all cases: cell-based
HeLa cells [1] = assay: Cyt c delivery and intracellular distribution (fluorescence imaging)
From the text: For a proof-of-principle application in therapeutic protein delivery, we selected cytochrome c (Cyt c), an intracellular signaling protein for apoptosis, as a model cargo molecule. To track Cyt c delivery and intracellular distribution, it was labeled with a fluorescent dye (AF488, green). Cell nucleic were counterstained by Hoechst 33258 (blue). […] This is expected because Cyt c is a highly water-soluble macromolecule (m.w. ˜12 kDa) that cannot diffuse through the cell membrane by itself. Instead, a minute amount of Cyt c was uptaken by cells but trapped in endosomes/lysosomes (not shown). […] This study proves the feasibility and potential of specific targeting of certain cell signaling nodes inside cells with protein drugs.
(§1) HeLa cells were seeded onto glass-bottom dishes and cultured overnight. The cells were treated with cyt c (tagged or untagged) of various concentrations in culture media for 4 h, washed, and cultured in fresh media for another 48 h. Cell viability was measured using the dual-color LIVE/DEAD Viability/Cytotoxicity Kit following the manufacturer's instruction.

HeLa cells [2] = assay: Cancer cell viability upon treatment with cytochrome c (LIVE/DEAD); details: Cyt c concentration of 2 μM for cell incubation
Experimental: as §1

HeLa cells [3] = assay: Toxicity study of CB and cholesterol tag (CellTiter-Blue); details: FIG. 14, HeLa cells
Experimental: Cytotoxicity of the tag was evaluated on HeLa cells. Briefly, cells were seeded in 96-well plates at 3,000 cells/well. CB, the tag, or tagged protein (BSA) was added at a series of concentrations from 10 μM to 3.3 nM. Untreated cells were used as control. After 48-h incubation, 10 μl of CellTiter-Blue reagent (Promega) was added to the wells and the culture was incubated for another 1 h. Cell viability was examined on a microplate reader (Tecan) at ex/em=560/590 nm and the toxicity was analyzed according to the manufacturer's protocol.

## Cyt c alone: cytochrome c, intracellular signaling protein for apoptosis, m.w. ~12 kDa, untagged
HeLa cells [1]
  intracellular fluorescence of AF488-labeled Cyt c: minor dotted intracellular green fluorescence
HeLa cells [2]
  cell viability: no sign of toxicity

## CCOc1ccc(Nc2ccc(/C(=C3C=C/C(=[N+](/CC)Cc4cccc(S(=O)(=O)[O-])c4)C=C/3C)c3ccc(N(CC)Cc4cccc(S(=O)(=O)[O-])c4)cc3C)cc2)cc1.[Na+] [Coomassie blue]
HeLa cells [3]
  biocompatibility: biocompatible
